Results reported in patent US8962003B2, “Insect behaviour modifying compounds” (The New Zealand Institute for Plant and Food Research …, priority 2003, dated 2015).

Test system: Thrips tabaci
Test: Field trials with baited water traps
Format: in vivo
Conditions: field trials (Table 1)
Source text: (§1) Water traps were placed out into a field comprising several species of grasses, white clover (Trifolium repens L.) and several weed species (≈100 mm in height). Grass and cereal fields surrounded the field trial area on three sides and poplar (Poplar nigra L.) trees on the other, on the Canterbury Agricultural Research Centre campus. Each field trial consisted of five replicates of five treatments including a water control, positive control compound (ethyl nicotinate, ethyl isonicotinate, or benzaldehyde, Table 1) and three test compounds set out in the field in a grid (10×10 m) using a Latin square design with the trial area at least 100 m from the field boundary/shelter belt. White plastic containers (2 L capacity, 16×16×8.5 cm) containing approximately 1.7 L water, 0.4 ml of formalin (to prevent fungal growth) and 0.08 ml tween were placed above the crop canopy on inverted white (2 L capacity, 16×16×8.5 cm) or black plastic containers (24 cm diameter, 13 cm tall). For each treatment, 1 ml of a compound or water was added to a glass vial (12×32 mm screw thread vial) containing a 4.5 cm^2 piece of rolled filter paper (Whatman No. 1) that projected 1 cm above the top of the vial, creating a wick. The glass vial was suspended above the water in the centre of the trap using wire (0.5 mm diameter). The vials were removed after 24 or 48 h and the containers were sealed for transport to a laboratory. The contents from a water trap were poured through a sieve (250 μm mesh) and all insects were washed into a 50 ml Schott bottle within 24 h of collecting them from the field. All thrips were pipetted from each water trap sample and counted. Thrips were mounted on to slides using polyvinyl alcohol glue (1 part polyvinyl alchol: 4 parts water, 1 part lactic acid: 1.25 parts phenyl) from each trap using the following subsample method: less than 50 thrips, all thrips were mounted on to a slide; 50 to 100 thrips, a subsample of 25 thrips were mounted on to a slide; more than 100 thrips, a subsample of 50 thrips were mounted on to a slide. The slides were examined under 100× magnification using a compound microscope to identify thrips species. Subsampled thrips were sexed and identified to species according to Mound and Walker (Mound, L. A. and Walker, A. K. 1982. Terebrantia (Insecta: Thysanoptera). Fauna of New Zealand No. 1.). The mean number of each species for each treatment was calculated by multiplying the proportion of each species within a subsample with the total number of thrips counted in each water trap.

SMILES | Attractancy to Thrips tabaci (in words)
CCC(=O)c1ccncc1 [Ethyl 4-pyridyl ketone] | attractants
CCCCCCOC(=O)c1ccncc1 [hexyl isonicotinate] | not found to be significantly attractive
CC(=O)c1ccncc1 [Methyl 4-pyridyl ketone] | attractants

Test system: Thrips obscuratus
Test: Field trials with baited water traps
Format: in vivo
Conditions: not given
Source text: as §1

SMILES | Attractancy to Thrips obscuratus (in words)
CCCCCCOC(=O)c1ccncc1 [hexyl isonicotinate] | not found to be significantly attractive

Same assay, conditions: female Thrips obscuratus; field water traps, 1 ml compound, 24 or 48 h; * = P < 0.05 vs control trap; brackets = backtransformed 95% CI

SMILES | Average ratio of female thrips caught relative to water traps (95% CI)
c1cc(C2OCCO2)ccn1 [Pyridine, 4-(1,3-dioxalan-2-yl), 4-(1,3-Dioxolan-2-yl)pyridine] | 16.6 (0.3, 827.2)
CCCCCCCCCCOC(=O)c1ccncc1 [Decyl isonicotinate] | 14.9 (0.3, 739.5)
CC(=O)c1ccncc1 [Methyl 4-pyridyl ketone] | 0 (0.0, >1000)

Test system: Frankliniella occidentalis
Test: Greenhouse trials with water traps or yellow sticky traps
Format: in vivo
Conditions: Water trap, 24 h, capsicum greenhouse; around 66% of thrips caught were Frankliniella occidentalis; t-value in brackets in same cell
Source text: Greenhouse trials were undertaken using water traps similar to those used in the field trials (Example 2), or yellow sticky traps (Veg-Gro Supplies Ltd, Auckland) to examine the response of thrips to volatile compounds. The greenhouse, located in Auckland, is ≈88×200 m, constructed of glass, and is used to grow capsicum (Capsicum annuum var. Special, Fiesta, Boogie and Stirit). Water traps were placed 20 to 24 m apart within a row and 24 m apart between rows. There were 6 baited water traps for each compound tested and 6 water-only traps randomly positioned in a 6×2 grid in the greenhouse. Traps were positioned just above the crop canopy. Water traps (2 L containers, 16×16×8.5 cm) were assembled as described in Example 2 and left in the greenhouse for 24 h, after which time the containers were sealed for transport to a laboratory. Insects from each water trap were transferred to 5 ml glass tubes containing 75% ethanol within 24 h of collecting them from the greenhouse. Catches from each treatment were analysed under a stereomicroscope (100×) and the proportion of Frankliniella occidentalis was determined.
Yellow sticky traps (24.4×20 cm) were treated with a compound or water using a 30 ml spray mist dripulator (Arthur Holmes, Wellington) held 10 cm away from the sticky trap. Four sprays were applied to each side, coating the sticky trap in approximately 1 ml of water or compound. Sticky traps sprayed with the same treatment were separated using black metal foldback clips (19 mm, Celco), suspended within a cardboard box (29.5×22.3×30.2 cm), which was in turn sealed within a plastic bag for transport to the greenhouse. Traps were suspended in the greenhouse just above the crop canopy within 3 h after spraying, using the same layout as for the water traps (20 to 24 m apart within a row, 24 m between rows, in a 6×2 grid). After 24 h the traps were collected by wrapping each trap in plastic wrap for transport to the laboratory. The total number of thrips on the traps were counted using 10× magnification. Thrips were removed from the sticky traps using De-Solv-it® and Johnsons baby oil®. A subsample from each treatment was further analysed under a stereomicroscope (100×) and the proportion of Frankliniella occidentalis was determined.

SMILES | Average ratio of thrips caught relative to water treated traps
COC(=O)c1ccncc1 [Methyl isonicotinate] | 4.3 (5.7)
CCOC(=O)c1ccncc1 [Ethyl isonicotinate] | 2.2 (2.8)

Same assay, conditions: Yellow sticky trap, about 1 ml sprayed, 24 h, capsicum greenhouse; >95% of thrips caught were Frankliniella occidentalis; t-value in brackets in same cell

SMILES | Average ratio of thrips caught relative to water treated traps
COC(=O)c1ccncc1 [Methyl isonicotinate] | 3.7 (8.1)
CCOC(=O)c1ccncc1 [Ethyl isonicotinate] | 2.6 (3.9)
CC(=O)c1ccncc1 [Methyl 4-pyridyl ketone] | 3.1 (6.6)
CCOC(=O)c1ccnc(Cl)c1 [Ethyl 2-chloro-isonicotinate] | 1.8 (2.8)

Test system: Frankliniella occidentalis
Test: Y-tube olfactometer bioassay
Format: in vivo
Conditions: female Frankliniella occidentalis, Y-tube
Description: The thrips behaviour-modifying activity of a compound may be evaluated in a glass Y-tube olfactometer following the method described by de Kogel et al. (de Kogel, W. J., Koschier, E. H. and Visser, J. H. Proc. Exper. & Appl. Entomol., N. E. V. Amsterdam, (1999) 10, 131-135.) and Koschier et al. (Koschier, E. H., De Kogel, W. J. and Visser, J. H. (2000) Jounrnal of Chemical Ecology, 26, 2643-2655).
The olfactory behaviour of thrips toward volatile compounds was evaluated in a glass Y-tube olfactometer following the method described by de Kogel et al. (de Kogel, W. J., Koschier, E. H. and Visser, J. H. Proc. Exper. & Appl. Entomol., N. E. V. Amsterdam, (1999) 10, 131-135.) and Koschler et al. (Koschier, E. H., De Kogel, W. J. and Visser, J. H. (2000) Journal of Chemical Ecology, 26, 2643-2655.). The Y-tube has two branching arms at an angle of 45° leading into a single tube, all 60 mm long, with an internal diameter of 5 mm. The arms of the Y-tube were connected to glass Wheaton Micro Kit® adapters that were in turn attached to 4 ml glass vials each containing a 1 cm^2 piece of filter paper (Whatman No. 1). The Y-tube and Wheaton apparatus were placed in a grey-box (to prevent external stimuli influencing thrips' behaviour), located in a darkened, air-conditioned room (22±3° C.). The Y-tube was placed at an inclining position of 25° between the Y-tube and horizontal plane and illuminated from above by a halogen lamp (780 lux). One microliter of the volatile compounds, either undiluted or diluted in hexane (95%, Pronalys AR), was applied to filter paper in one vial, while 1 μl of hexane was applied to filter paper held in the second vial. Air was drawn through activated charcoal before entering the Wheaton apparatus and Y-tube using a suction pump (AR Harris Co. Ltd, Christchurch) producing an airflow of 5 cm/s through each arm and 10 cm/s at the base of the Y-tube. Air was drawn through for 30 min before introducing the first thrips. Connections between the activated charcoal, Wheaton apparatus, Y-tube and suction pump consisted of silicone tubing.
An individual female Frankliniella occidentalis thrips of unknown age, that had been starved overnight, was released into the Y-tube using a small aspirator. The aspirator was made by placing a 1 ml pipette tip over the end of silicone tubing (5 mm diameter) the end of which was covered with fine mesh; the pipette tip was cut so it projected 5 mm beyond the end of the silicone tubing. A thrips was sucked up into the pipette tip, which was then placed at the base of the Y-tube. Most thrips walked up into the Y-tube within a few seconds, at which time the silicone air suction tubing was reconnected to the glass Y. The choice between clean or odour laden airflow was recorded when the thrips reached the far end of one arm and only those thrips that made the choice within 3 min were recorded. After every 5 thrips the Y-tube and Wheaton apparatus were rotated […] to avoid position effects. After 25 choices were recorded, the Y-tube and Wheaton apparatus were thoroughly cleaned with acetone (99.5%, BDH) and allowed to dry before repeating the experiment. Each compound and dilution was replicated 3 times.

SMILES | Comment (repellant)
CC(=O)Sc1ccncc1 [4-Pyridyl thioacetate] | Repellant
N#Cc1ccncc1 [4-Cyanopyridine] | Repellant

Same assay, conditions: female Frankliniella occidentalis, Y-tube; no unit in the cell (MAC column is in %)

SMILES | Comment: concentration above which the compound is repellant
O=Cc1ccncc1 [4-Formylpyridine] | Repellant > 0.01

Same assay, conditions: female Frankliniella occidentalis; 1 µl undiluted or diluted in hexane

SMILES | MAC (%) = Minimum Active Concentration to elicit a response from thrips (P < 0.05) [%]
CC(=O)Sc1ccncc1 [4-Pyridyl thioacetate] | <100
COC(=O)c1ccncc1 [Methyl isonicotinate] | 0.0001
c1cc(C2OCCO2)ccn1 [Pyridine, 4-(1,3-dioxalan-2-yl), 4-(1,3-Dioxolan-2-yl)pyridine] | 1
CC(C)OC(=O)c1ccncc1 [Isopropyl isonicotinate] | 1
CCOC(=O)c1ccncc1 [Ethyl isonicotinate] | 0.001
N#Cc1ccncc1 [4-Cyanopyridine] | <100
CCC(=O)c1ccncc1 [Ethyl 4-pyridyl ketone] | 1
CCCOC(=O)c1ccncc1 [n-Propyl isonicotinate] | 0.1
CC(C)N(C(=O)c1ccncc1)C(C)C [Di-iso-Propyl isonicotinate, diisopropyl isonicotinamide] | <100
CC(=O)c1ccncc1 [Methyl 4-pyridyl ketone] | 0.001
O=Cc1ccncc1 [4-Formylpyridine] | 0.001
CCOC(=O)c1ccnc(Cl)c1 [Ethyl 2-chloro-isonicotinate] | 0.0001
CCCC(=O)c1ccncc1 [n-Propyl 4-pyridyl ketone] | 100

Same assay, conditions: female Frankliniella occidentalis; same cell prints a '(t value)' in brackets

SMILES | % Response: percentage of thrips to walk up odour-laden arm
CC(=O)Sc1ccncc1 [4-Pyridyl thioacetate] | 26.7 (<0.001) %
COC(=O)c1ccncc1 [Methyl isonicotinate] | 74.7 (<0.001) %
CC(C)OC(=O)c1ccncc1 [Isopropyl isonicotinate] | 66.7 (0.002) %
CCOC(=O)c1ccncc1 [Ethyl isonicotinate] | 60.0 (0.043) %
N#Cc1ccncc1 [4-Cyanopyridine] | 38.7 (0.026) %
CCC(=O)c1ccncc1 [Ethyl 4-pyridyl ketone] | 68.0 (0.001) %
CCCOC(=O)c1ccncc1 [n-Propyl isonicotinate] | 61.3 (0.026) %
CC(C)N(C(=O)c1ccncc1)C(C)C [Di-iso-Propyl isonicotinate, diisopropyl isonicotinamide] | 81.3 (<0.001) %
CC(=O)c1ccncc1 [Methyl 4-pyridyl ketone] | 77.3 (<0.001) %
O=Cc1ccncc1 [4-Formylpyridine] | 66.7 (0.002) %
CCOC(=O)c1ccnc(Cl)c1 [Ethyl 2-chloro-isonicotinate] | 65.3 (0.005) %
CCCC(=O)c1ccncc1 [n-Propyl 4-pyridyl ketone] | 54.7 (0.282) %

Same assay, conditions: high concentration

SMILES | Activity towards Frankliniella occidentalis at high concentration
O=Cc1ccncc1 [4-Formylpyridine] | repellant

Same assay, conditions: low concentration

SMILES | Activity towards Frankliniella occidentalis at low concentration
O=Cc1ccncc1 [4-Formylpyridine] | attractant

Same assay, conditions: text statements (Table 2)

SMILES | Behaviour-modifying activity towards Frankliniella occidentalis (in words)
CC(=O)Sc1ccncc1 [4-Pyridyl thioacetate] | thrips-repellant activity
N#Cc1ccncc1 [4-Cyanopyridine] | thrips-repellant activity
C=C(C)CCOC(=O)c1ccncc1 [isopentenyl isonicotinate] | not found to be significantly attractive or repulsive
CC(C)N(C(=O)c1ccncc1)C(C)C [Di-iso-Propyl isonicotinate, diisopropyl isonicotinamide] | attractant
CCOC(=O)c1ccnc(Cl)c1 [Ethyl 2-chloro-isonicotinate] | strong attractant
CCCC(=O)c1ccncc1 [n-Propyl 4-pyridyl ketone] | attractant

Test system: Frankliniella occidentalis
Test: not given
Conditions: MacDonald et al. 2002; cited from earlier work

SMILES | Repellant activity towards Frankliniella occidentalis (literature, alarm pheromones)
CCCCCCCCCCOC(C)=O [Decyl acetate] | repellant activity
CCCCCCCCCCCCOC(C)=O [dodecyl acetate] | repellant activity
